Results taken from US5843950A, “1,4-dihydropyridine compound and pharmaceutical composition containing the same” (Nikken Chemicals Co., Ltd., priority 1994, dated 1998).
Like-named read-outs stand apart in the source and are kept apart here.

Tests used:
[1] = tested on: KB cells; assay: In vitro suppression of proliferation of KB cancer cells by concomitant use with doxorubicin; assay type: cell-based, Human; conditions: test compound 1 μg/ml with ADM, ADM alone in KB = 1
Procedure: (§1) In vitro test of action suppressing proliferation of cancer cells by concomitant use with doxorubicin
(§2) As the incubation solutions, use was made of 10% fetal calf serum (made by Flow Laboratories) and Eagle MEM medium (made by Nissui Seiyakusha) containing 0.292 mg/ml of L-glutamine (made by Flow Laboratories). The tests of the action in overcoming resistance to anti-cancer drugs or action reinforcing the effect of the anti-cancer drug through concomitant use of the anti-cancer drug doxorubicin (adriamycin, ADM) and the test compound were performed as follows: The test cells were suspended in incubation solutions and adjusted to a cell density of about 200 cells/ml. The cell suspensions were injected in 2 ml amounts into petri dishes and were incubated in a CO2 gas incubator (5% CO2, 95% air) at 37° C. for 24 hours. Next, 5 to 10 μl of a predetermined concentration of the aqueous ADM solution and a predetermined concentration of a DMSO solution of the test compound were added, then the incubation was continued for a further 7 days. After the end of the incubation, the result was immobilized by methanol, Giemsa stained and measured for the number of colonies per dish. The results were used to prepare a volume-reaction curve.

[2] = tested on: VJ-300 cells; assay: In vitro suppression of proliferation of multi-drug resistant VJ-300 cells by concomitant use with doxorubicin; assay type: cell-based, Human; conditions: test compound 1 μg/ml with ADM, ADM alone in KB = 1
Procedure: as §1, §2

[3] = tested on: TxA2 synthesis; assay: TxA2 synthesis inhibiting action test (human blood platelet microsomes); assay type: biochemical; conditions: prostaglandin H2
Procedure: TxA2 Synthesis Inhibiting Action Test
One ml of a buffer (20 mM Tris-HCl buffer, 1 mM EDTA, pH 7.5) containing human blood platelet microsomes (50 μg protein/ml) and the test compound (final concentration 10^-7 M) was agitated, then incubated at 0° C. for 30 minutes. To this was added prostaglandin H2 (100 ng/2 μl). This was incubated at 23° C. for 3 minutes to cause a reaction. Next, 1M hydrochloric acid was added to make the solution acidic and stop the reaction, then this was neutralized by 1M Tris-Base and centrifuged at 3000 rpm for 20 minutes. The amount of the TxB2 in the supernatant was measured by the EIA method (Cayman Co. kit).

[4] = tested on: KCl contraction in rat arteries (thoracic aorta); assay: Action easing KCl contraction in rat arteries (thoracic aorta ring); conditions: read-out: IC50 value (50% inhibitory concentration of hyperpotassium contraction), Test Example 7, Table 7, 37° C.
Procedure: Action easing KCl contraction in rat arteries
The specimen was stabilized for approximately 60 minutes, then a potassium chloride solution was added to the Magnus tube to give a final concentration of […]. The positive control compound or the compound of the present invention was cumulatively added from 1×10^-10 M to 1×10^-4 M when the contraction reaction occurring at that time reached equilibrium. The contraction force was recorded by an FD-pickup (made by Nihon Kodensha) via a polygraph (made by Nihon Kodensha).

[5] = Acute toxicity test; conditions: mouse, in vivo, ip; mice, intraperitoneal, 7 days observation
Procedure: Animals used: ICR male mice (Charles River Japan) 7-8 weeks old, three mice per group.
Test method: The compound of the present invention was suspended in 0.5% sodium carboxymethylcellulose (CMC-Na) containing 0.1% Tween 80. It was administered to the mice intraperitoneally from 2000 mg/kg to 125 mg/kg by a ratio of 1/2 and from 125 mg/kg to 31.3 mg/kg by a ratio of 1/√2 in groups of three mice until no more deaths were observed. The survival of the animals was observed up until 7 days after administration and the LD50 was calculated by the Van Der Wearder area method.

[6] = tested on: VCR resistant murine leukemia (P388/VCR) cells; assay: In vivo effect for overcoming resistance to vincristine in VCR resistant murine leukemia (P388/VCR) bearing mice; design: species or system CDF1 male mice
Description: In vivo test of action suppressing proliferation of cancer cells by concomitant use with anti-cancer drug
The number of survival days were found and the life prolonging rate (T/C) with respect to the controls was found. The effect in overcoming resistance to an anti-cancer drug (T/V) was found by the following formula.
Effect for overcoming resistance to an anti-cancer drug (T/V) %
=[Life prolonging rate (T/C) in case of concomitant use of VCR and the compound of the present invention]/[Life prolonging rate (T/C) in case of VCR alone]×100
Using Compound 18 to Compound 22 and Compound 32, the same procedure was followed as in Test Example 5 to find the effect for overcoming resistance to an anti-cancer drug in vincristine (VCR) resistant murine leukemia cell bearing mice.

[7] = tested on: KCl contraction in rat arteries (thoracic aorta); assay: Action easing KCl contraction in rat arteries (thoracic aorta ring); conditions: read-out: IC50 value (50% inhibitory concentration of hypercalcemic contraction), Test Example 8, Table 8
[8] = tested on: multi-drug resistance; conditions: Cancer Res., 41, 1967-1972 (1981); Cancer and Chemotherapy, vol. 11, pp. 750-759 (1984); cited from earlier work
[9] = tested on: KB cells; assay: In vitro suppression of proliferation of KB cancer cells by concomitant use with vincristine; assay type: cell-based, Human; conditions: test compound 1 μg/ml with VCR, VCR alone in KB = 1
Procedure: as §2
In vitro test of action suppressing proliferation of cancer cells by concomitant use with vincristine […]

[10] = tested on: VJ-300 cells; assay: In vitro suppression of proliferation of multi-drug resistant VJ-300 cells by concomitant use with vincristine; assay type: cell-based, Human; conditions: test compound 1 μg/ml with VCR, VCR alone in KB = 1
[11] = Test Example 5, Table 5, T/C with VCR + compound over T/C with VCR alone ×100
[12] = Test Example 5, Table 5, VCR 100 μg/kg i.p. 5 days with compound 100 mg/kg (verapamil 60, nicardipine 75 mg/kg)
[13] = Test Example 6, Table 6, same procedure as Test Example 5

Row | SMILES | TxA2 synthesis inhibiting action Rate of suppression at 10^-7 mol (%) [3] | LD50 at 168 h [5] | Effect for overcoming resistance T/V (%) [6, 11] | Life prolonging rate T/C (%) [6, 12] | Mean days of survival [6, 12] | IC50 [7] | further results
1 | COc1cccc2c1C(=O)c1c(O)c3c(c(O)c1C2=O)C[C@@](O)(C(=O)CO)C[C@@H]3O[C@H]1C[C@H](N)[C@H](O)[C@H](C)O1 [ADM, doxorubicin] |  |  |  |  |  |  | Resistance with ADM, KB (LD50 concentration of ADM relative to ADM alone in KB cells) [1]: 1; Resistance with ADM, VJ-300 (LD50 concentration of ADM relative to ADM alone in KB cells) [2]: 26.4
2 | CC1=C(C(=O)OCCCc2cccnc2)C(C(C)C)C(C(=O)OCCCc2cccnc2)=C(C)N1 [Compound 1, 2,6-dimethyl-4-isopropyl-1,4-dihydropyridine-3,5-dicarboxylic acid bis[3-(3-pyridyl)propyl]ester] | 90.7% | 750 mg/kg |  |  |  |  | IC50 [4]: > 30 µM
3 | CCCC(C)C1C(C(=O)OCCCc2cccnc2)=C(C)NC(C)=C1C(=O)OCCCc1cccnc1 (stereo not drawn) [Compound 3, 2,6-dimethyl-4-(1-methylbutyl)-1,4-dihydropyridine-3,5-dicarboxylic acid bis[3-(3-pyridyl)propyl]ester] | 82.4% | 188 mg/kg | 161% | 172% | 17.2 days |  | 
4 | CC1=C(C(=O)OCCCc2cccnc2)C(Cc2ccccc2)C(C(=O)OCCCc2cccnc2)=C(C)N1 [Compound 5, 2,6-dimethyl-4-benzyl-1,4-dihydropyridine-3,5-dicarboxylic acid bis[3-(3-pyridyl)propyl]ester] |  | 1120 mg/kg |  |  |  | 42 µM | 
5 | CC1=C(C(=O)OCCCc2cccnc2)C(C(c2ccccc2)c2ccccc2)C(C(=O)OCCCc2cccnc2)=C(C)N1 [Compound 6, 2,6-dimethyl-4-benzhydryl-1,4-dihydropyridine-3,5-dicarboxylic acid bis[3-(3-pyridyl)propyl]ester] |  | 2000 mg/kg |  |  |  |  | IC50 [4]: 25.5 µM
6 | COC(=O)C1=C(C)NC(C)=C(C(=O)OCCCc2cccnc2)C1C(C)C (stereo not drawn) [Compound 13, 2,6-dimethyl-4-isopropyl-1,4-dihydropyridine-3,5-dicarboxylic acid 3-methylester 5-[3-(3-pyridyl)propyl]ester] | 71.4% |  |  |  |  | 5.7 µM | 
7 | CC1=C(C(=O)OCCCc2cccnc2)C(C(C)C)C(C(=O)OCc2ccncc2)=C(C)N1 (stereo not drawn) [Compound 15, 2,6-dimethyl-4-isopropyl-1,4-dihydropyridine-3,5-dicarboxylic acid 3-(4-pyridylmethyl) ester, 5-[3-(3-pyridyl)propyl]ester] | 83.5% |  | 134% | 144% | 14.4 days | 4.2 µM | 
8 | CCCCCCCCC1C(C(=O)OCCCc2cccnc2)=C(C)NC(C)=C1C(=O)OCCCc1cccnc1 [Compound 16, 2,6-dimethyl-4-n-octyl-1,4-dihydropyridine-3,5-dicarboxylic acid bis[3-(3-pyridyl)propyl]ester] |  | > 2000 mg/kg |  |  |  | 62 µM | 
9 | CCCCCC1C(C(=O)OCCCc2cccnc2)=C(C)NC(C)=C1C(=O)OCCCc1cccnc1 [Compound 18, 2,6-dimethyl-4-n-pentyl-1,4-dihydropyridine-3,5-dicarboxylic acid bis[3-(3-pyridyl)propyl]ester] |  | > 2000 mg/kg |  |  |  | 4.6 µM | Effect for overcoming resistance T/V (%) [6, 13]: 140%; Life prolonging rate T/C (%) [6, 13]: 143%; Mean days of survival [6, 13]: 15.3 days
10 | COC(=O)C1=C(C)NC(C)=C(C(=O)OCCN(C)Cc2ccccc2)C1c1cccc([N+](=O)[O-])c1 (stereo not drawn) [Nicardipine, nicardipine, reference compound] |  |  | 123% | 132% | 13.2 days | 0.15 µM | IC50 [4]: 0.53 µM; overcoming multi-drug resistance by concomitant administration with an anti-cancer drug [8]: effective
11 | CC[C@]1(O)C[C@H]2CN(CCc3c([nH]c4ccccc34)[C@@](C(=O)OC)(c3cc4c(cc3OC)N(C=O)[C@H]3[C@@](O)(C(=O)OC)[C@H](OC(C)=O)[C@]5(CC)C=CCN6CC[C@]43[C@@H]65)C2)C1 [VCR, vincristine, reference compound] |  |  | 100% | 107% | 10.7 days |  | Effect for overcoming resistance T/V (%) [6, 13]: 100%; Life prolonging rate T/C (%) [6, 13]: 102%; Mean days of survival [6, 13]: 10.9 days; Resistance with VCR, KB (LD50 concentration of VCR relative to VCR alone in KB cells) [9]: 1; Resistance with VCR, VJ-300 (LD50 concentration of VCR relative to VCR alone in KB cells) [10]: 603.4
